Patent US20260042753A1 (Merck Patent GmbH, priority 2019, published 2026)
Read-outs that look alike come from different tables or passages of the source.

Key:
[1] = target: mutant cKIT (560-576 and V654A) in GIST430/654 cell line (Homo sapiens (Human), UniProt P10721, DEL560-576/V654A); assay: Cellular testing of cKIT mutant inhibitors: phospho-Y307-cKIT Luminex assay in GIST430/654 cells; assay type: cell-based; details: read-out: GIST 430/654 IC50
Procedure, shortened: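 GIST430/654 cells carrying constitutively active cKIT (Δ560-576/V654A) were grown with 100 nM imatinib, then treated with serially diluted compound for 45 min. Lysates were captured on anti-total-cKIT Luminex beads overnight at 4 °C and probed for phospho-Y307-cKIT. IC50 was fitted from percent of 0.3% DMSO control.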

c-Kit(V654A) = c-Kit(V654A) (Homo sapiens, UniProt P10721, V654A); assay: c-Kit(V654A) assay; assay type: biochemical
Procedure, shortened: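 Radiometric filter-binding read-out: after 3% phosphoric acid stop, peptide-incorporated 33P on filtermat scintillation-counted. Enzyme: human c-Kit V654A, residues 544–end, N-terminal GST fusion.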

[2] = Table 1, cKIT autophosphorylation, compounds 45 min
[3] = Table 2, corresponding triazole derivatives

Chain of mutant cKIT (560-576 and V654A) in GIST430/654 cell line (P10721 other isoform, or with tags, fused parts or gaps V654A/del 1-25/del 560-576 limits assumed): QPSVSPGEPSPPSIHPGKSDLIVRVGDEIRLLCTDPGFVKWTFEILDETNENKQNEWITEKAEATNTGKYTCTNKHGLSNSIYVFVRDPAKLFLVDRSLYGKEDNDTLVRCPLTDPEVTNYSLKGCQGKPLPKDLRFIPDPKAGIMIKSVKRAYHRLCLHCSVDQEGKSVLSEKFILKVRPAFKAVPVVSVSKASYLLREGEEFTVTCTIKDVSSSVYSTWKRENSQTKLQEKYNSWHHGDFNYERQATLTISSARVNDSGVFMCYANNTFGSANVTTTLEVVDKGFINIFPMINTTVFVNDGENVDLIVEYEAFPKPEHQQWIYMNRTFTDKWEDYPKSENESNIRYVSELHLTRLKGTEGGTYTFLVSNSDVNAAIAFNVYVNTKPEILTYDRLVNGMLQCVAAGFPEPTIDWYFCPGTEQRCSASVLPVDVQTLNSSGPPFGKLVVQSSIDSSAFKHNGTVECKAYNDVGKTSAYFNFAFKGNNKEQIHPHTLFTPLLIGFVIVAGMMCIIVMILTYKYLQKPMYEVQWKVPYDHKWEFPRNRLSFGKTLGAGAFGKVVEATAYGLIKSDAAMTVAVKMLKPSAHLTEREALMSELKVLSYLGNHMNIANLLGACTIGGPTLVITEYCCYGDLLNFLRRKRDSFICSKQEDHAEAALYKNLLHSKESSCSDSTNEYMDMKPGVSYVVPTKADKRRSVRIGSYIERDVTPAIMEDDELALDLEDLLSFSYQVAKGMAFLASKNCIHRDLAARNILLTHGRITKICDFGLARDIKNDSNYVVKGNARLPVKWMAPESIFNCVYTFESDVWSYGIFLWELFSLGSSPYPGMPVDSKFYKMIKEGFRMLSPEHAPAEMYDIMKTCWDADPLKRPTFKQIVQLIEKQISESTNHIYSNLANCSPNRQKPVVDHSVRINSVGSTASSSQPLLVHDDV

Structure (SMILES) | IC50 [1, 2] [nM] | IC50 (c-Kit(V654A); Table 1, 200 μM ATP) [nM] | IC50 [1, 3] [nM] | IC50 (c-Kit(V654A); [3]) [nM]
COCCOc1cc2[nH]nc(-c3cc(-c4ccc(N5CCC(O)CC5)cc4)no3)c2cc1F [A128, 1-(4-{5-[5-fluoro-6-(2-methoxyethoxy)-1H-indazol-3-yl]-1,2-oxazol-3-yl}phenyl)piperidin-4-ol] | 100 | 0.79 |  | 
COCCOc1cc2[nH]nc(-c3cn(-c4ccc(C5CCNCC5(C)C)cc4)nn3)c2cc1F (stereo not drawn) [reference compound] |  |  | 120 | 21
O=C(c1ccc(-c2cc(-c3n[nH]c4cc(OCCO)c(F)cc34)on2)cc1)N1CC(N2CCOCC2)C1 [A209, 2-{[5-fluoro-3-(3-{4-[3-(morpholin-4-yl)azetidine-1-carbonyl]phenyl}-1,2-oxazol-5-yl)-1H-indazol-6-yl]oxy}ethan-1-ol] | 120 | 0.86 |  | 
COCCOc1cc2[nH]nc(-c3cc(-c4ccc(C(=O)N5CC[C@@H](F)C5)nc4)no3)c2cc1F [A100, 5-fluoro-3-(3-{6-[(3R)-3-fluoropyrrolidine-1-carbonyl]pyridin-3-yl}-1,2-oxazol-5-yl)-6-(2-methoxyethoxy)-1H-indazole] | 340 | 5.7 |  | 
COCCOc1cc2[nH]nc(-c3cn(-c4ccc(C(=O)N5C[C@H]6COC[C@H]6C5)cc4)nn3)c2cc1F [reference compound] |  |  | 470 | 5
COCCOc1cc2[nH]nc(-c3cc(-c4ccc(C(=O)N5CCN(C6COC6)CC5)nc4)no3)c2cc1F [A68, (5-{5-[5-fluoro-6-(2-methoxy-ethoxy)-1H-indazol-3-yl]-isoxazol-3-yl}-pyridin-2-yl)-(4-oxetan-3-yl-piperazin-1-yl)-methanone] | 870 | 16 |  | 
COCCOc1cc2[nH]nc(-c3cc(-c4ccc(C(=O)N5CCC6(CC5)CN(C)C6)cc4)no3)c2cc1F [A176, 7-(4-{5-[5-fluoro-6-(2-methoxyethoxy)-1H-indazol-3-yl]-1,2-oxazol-3-yl}benzoyl)-2-methyl-2,7-diazaspiro[3.5]nonane] | 320 | 2.6 |  | 
COc1cc2[nH]nc(-c3cc(-c4ccc(C(=O)N5CC(N6CCOCC6)C5)cc4)no3)c2cc1F [A61, 5-fluoro-6-methoxy-3-(3-{4-[3-(morpholin-4-yl)azetidine-1-carbonyl]phenyl}-1,2-oxazol-5-yl)-1H-indazole] | 110 | 5.5 |  | 
COCCOc1cc2[nH]nc(-c3cc(-c4ccc(C(=O)N5CC6(C5)CS(=O)(=O)C6)cc4)no3)c2cc1F [A151, 6-(4-{5-[5-fluoro-6-(2-methoxyethoxy)-1H-indazol-3-yl]-1,2-oxazol-3-yl}benzoyl)-2lambda6-thia-6-azaspiro[3.3]heptane-2,2-dione] | 240 | 0.71 |  | 
COCCOc1cc2[nH]nc(-c3cc(-c4ccc(-n5nc(C)ccc5=O)cc4)no3)c2cc1F [A136, 2-(4-{5-[5-fluoro-6-(2-methoxy-ethoxy)-1H-indazol-3-yl]-isoxazol-3-yl}-phenyl)-6-methyl-2H-pyridazin-3-one] | 140 | 5.9 |  | 
COC(CO)COc1cc2[nH]nc(-c3cc(-c4ccc(C(=O)N(C)C)cc4)no3)c2cc1F (stereo not drawn) [A49, 4-{5-[5-fluoro-6-(3-hydroxy-2-methoxypropoxy)-1H-indazol-3-yl]-1,2-oxazol-3-yl}-N,N-dimethylbenzamide] | 500 | 1.9 |  | 
COCCOc1cc2[nH]nc(-c3cc(-c4ccc(C(=O)N5CCC56COC6)c(F)c4)no3)c2cc1F [A170, (2-fluoro-4-{5-[5-fluoro-6-(2-methoxy-ethoxy)-1H-indazol-3-yl]-isoxazol-3-yl}-phenyl)-(6-oxa-1-aza-spiro[3.3]hept-1-yl)-methanone] | 120 | 2.6 |  | 
[2H]C1([2H])N(C(=O)c2ccc(-c3cc(-c4n[nH]c5cc(OCCO)c(F)cc45)on3)cc2)C([2H])([2H])C([2H])([2H])N(C2COC2)C1([2H])[2H] [A234, 2-{[5-fluoro-3-(3-{4-[4-(oxetan-3-yl)(2,2,3,3,5,5,6,6-^2H8)piperazine-1-carbonyl]phenyl}-1,2-oxazol-5-yl)-1H-indazol-6-yl]oxy}ethan-1-ol] | 170 | 0.9 |  | 
COCCOc1cc2[nH]nc(-c3cc(-c4ccc(S(C)(=O)=O)cc4)no3)c2cc1F [A16, 5-fluoro-3-[3-(4-methanesulfonylphenyl)-1,2-oxazol-5-yl]-6-(2-methoxyethoxy)-1H-indazole] | 94 | 4.8 |  | 
COCCOc1cc2[nH]nc(-c3cc(-c4ncc(C(=O)N(C)C)s4)no3)c2cc1F [A92, 2-{5-[5-fluoro-6-(2-methoxyethoxy)-1H-indazol-3-yl]-1,2-oxazol-3-yl}-N,N-dimethyl-1,3-thiazole-5-carboxamide] | 360 | 55 |  | 
COCCOc1cc2[nH]nc(-c3cn(-c4ccc(C(=O)N5CCC[C@H]5C(C)(C)O)cc4)nn3)c2cc1F [reference compound] |  |  | 79 | 2.5

Continued by falling IC50 [1, 2], values first:

IC50 [1, 2] [nM] | IC50 (c-Kit(V654A); Table 1, 200 μM ATP) [nM] | IC50 [1, 3] [nM] | IC50 (c-Kit(V654A); [3]) [nM] | Structure (SMILES)
90 | 2.9 |  |  | COCCOc1cc2[nH]nc(-c3cc(-c4ccc(C(=O)N5CC(N6CCOCC6)C5)cc4)on3)c2cc1F [A146, (4-{3-[5-fluoro-6-(2-methoxy-ethoxy)-1H-indazol-3-yl]-isoxazol-5-yl}-phenyl)-(3-morpholin-4-yl-azetidin-1-yl)-methanone]
85 | 0.59 |  |  | COCCOc1cc2[nH]nc(-c3cc(-c4ccc(C(=O)N5CCN(CC6CC6)CC5)cc4)no3)c2cc1F [A179, 3-(3-{4-[4-(cyclopropylmethyl)piperazine-1-carbonyl]phenyl}-1,2-oxazol-5-yl)-5-fluoro-6-(2-methoxyethoxy)-1H-indazole]
77 | 0.7 |  |  | COCCOc1cc2[nH]nc(-c3cc(-c4ccc(C(=O)N5CCOC[C@@H]5CO)cc4)no3)c2cc1F [A106, [(3S)-4-(4-{5-[5-fluoro-6-(2-methoxyethoxy)-1H-indazol-3-yl]-1,2-oxazol-3-yl}benzoyl)morpholin-3-yl]methanol]
66 | 2 |  |  | COCCOc1cc2[nH]nc(-c3cc(-c4ccc(C(=O)N5CCO[C@H](C)C5)cc4)no3)c2cc1F [A180, 5-fluoro-6-(2-methoxyethoxy)-3-(3-{4-[(2R)-2-methylmorpholine-4-carbonyl]phenyl}-1,2-oxazol-5-yl)-1H-indazole]
63 | 1.4 |  |  | COCCOc1cc2[nH]nc(-c3cc(-c4ccc(C(=O)N5CC(N6CCOCC6)C5)c(C)c4)no3)c2cc1F [A171, (4-{5-[5-fluoro-6-(2-methoxy-ethoxy)-1H-indazol-3-yl]-isoxazol-3-yl}-2-methyl-phenyl)-(3-morpholin-4-yl-azetidin-1-yl)-methanone]
59 | 1.2 |  |  | COCCOc1cc2[nH]nc(-c3cc(-c4ccc(C(=O)N5CCN(C6COC6)CC5)cc4)no3)c2cc1F [A45, (4-{5-[5-fluoro-6-(2-methoxy-ethoxy)-1H-indazol-3-yl]-isoxazol-3-yl}-phenyl)-(4-oxetan-3-yl-piperazin-1-yl)-methanone]
58 | 0.96 |  |  | COCCOc1cc2[nH]nc(-c3cc(-c4ccc(C(=O)N5CCNCC5)cc4)no3)c2cc1F [A46, 5-fluoro-6-(2-methoxyethoxy)-3-{3-[4-(piperazine-1-carbonyl)phenyl]-1,2-oxazol-5-yl}-1H-indazole]
57 | 0.88 |  |  | COCCOc1cc2[nH]nc(-c3cc(-c4ccc(C(=O)N5CCC[C@H]5CO)cc4)no3)c2cc1F [A51, [(2S)-1-(4-{5-[5-fluoro-6-(2-methoxyethoxy)-1H-indazol-3-yl]-1,2-oxazol-3-yl}benzoyl)pyrrolidin-2-yl]methanol]
53 | 5.6 |  |  | COCCOc1cc2[nH]nc(-c3cc(-c4ccc(C(=O)N5CCC[C@H]5C(C)(C)O)nc4)no3)c2cc1F [A107, 2-[(2S)-1-(5-{5-[5-fluoro-6-(2-methoxyethoxy)-1H-indazol-3-yl]-1,2-oxazol-3-yl}pyridine-2-carbonyl)pyrrolidin-2-yl]propan-2-ol]
47 | 0.62 |  |  | COCCOc1cc2[nH]nc(-c3cc(-c4ccc(C(=O)N5CC(c6cnn(C)c6)C5)cc4)no3)c2cc1F [A218, 5-fluoro-6-(2-methoxyethoxy)-3-(3-{4-[3-(1-methyl-1H-pyrazol-4-yl)azetidine-1-carbonyl]phenyl}-1,2-oxazol-5-yl)-1H-indazole]
45 | 0.83 |  |  | COCCOc1cc2[nH]nc(-c3cc(-c4ccc(C(=O)N5CCOC[C@@H]5C)cc4)no3)c2cc1F [A115, 5-fluoro-6-(2-methoxyethoxy)-3-(3-{4-[(3S)-3-methylmorpholine-4-carbonyl]phenyl}-1,2-oxazol-5-yl)-1H-indazole]
44 | 0.65 |  |  | COCCOc1cc2[nH]nc(-c3cc(-c4ccc(C(=O)N5C[C@@H]6C[C@H]5CO6)cc4)no3)c2cc1F [A162, 5-fluoro-6-(2-methoxyethoxy)-3-(3-{4-[(1S,4S)-2-oxa-5-azabicyclo[2.2.1]heptane-5-carbonyl]phenyl}-1,2-oxazol-5-yl)-1H-indazole]
32 | 0.53 |  |  | COCCOc1cc2[nH]nc(-c3cc(-c4ccc(C(=O)N5CC(N6CCOCC6)C5)cc4)no3)c2cc1Cl [A64, (4-{5-[5-chloro-6-(2-methoxy-ethoxy)-1H-indazol-3-yl]-isoxazol-3-yl}-phenyl)-(3-morpholin-4-yl-azetidin-1-yl)-methanone]
24 | 0.37 |  |  | COCCOc1cc2[nH]nc(-c3cc(-c4ccc(N5CC[S+]([O-])CC5)cc4)no3)c2cc1F [A127, 4-(4-{5-[5-fluoro-6-(2-methoxyethoxy)-1H-indazol-3-yl]-1,2-oxazol-3-yl}phenyl)-1lambda4-thiomorpholin-1-one]
